Test system: ERK
Test: ERK activation in neonatal rat ventricular myocytes (pERK/ERK Western blot)
Type: cell-based
Conditions: NRVMs, norepinephrine 1 μM in the presence of propranolol 1 μM
Excerpt: FIGS. 4A-4F. […] The reaction was stopped immediately and lysates were blotted for total and phospho-ERK (pERK). FIG. 4A. Representative Western blot. FIG. 4B. […] FIG. 4C. Summary of pERK/ERK for experiments using 5 different NRVM isolations. The average pERK/ERK ratio for each experiment was derived from at least 2 individual wells and normalized to the pERK/ERK ratio for vehicle treated NRVMs. FIG. 4D and FIG. 4E. […] Heart lysates were blotted for pERK and ERK. Results were compared using one way ANOVA with Tukey post-test. FIG. 4F.
Dabuzalgron protects neonatal rat ventricular myocytes from cell death due to doxorubicin. […] (FIG. 4C).
Female Sprague-Dawley rats were from Charles River. NRVMs were isolated as previously described.7 Briefly, hearts from 1-2 day old rat pups were minced, digested serially in collagenase (Worthington)-containing solution, filtered, then pre-plated to exclude non-myocyotes. NRVMs were then plated on laminin-coated dishes in DMEM with 5% fetal bovine serum (Sigma F2442) for 24 hours. Experiments were carried out after 36-96 hours of serum starvation in the presence of insulin, transferrin, and BrdU. […]
All results are presented as mean±SEM. […] EC50 for ERK activation was calculated using sigmoidal dose-response analysis (Prism).

Compound: NC[C@H](O)c1ccc(O)c(O)c1 [norepinephrine]
- increase of pERK/ERK ratio: roughly 1.5 fold
